Test results reported in patent US8501911B2, “Methods of reducing inflammation and mucus hypersecretion” (Biomarck Pharmaceuticals, Ltd, priority 1999, dated 2013).
Residues, ends and D or L forms follow the SMILES beside them. *: point of attachment. Myristoyl = CCCCCCCCCCCCCC(=O)*

Tests used:
[1] = test system: canine neutrophils; experiment: MPO secretion from isolated canine neutrophils stimulated with PMA+8-Br-cGMP; type: cell-based
Procedure: Isolation of PMNs from canine blood—The steps involved in isolating PMN include collecting 10 ml ACD anticoagulated blood; then layering 5 ml on 3.5 ml PMN isolation media while ensuring that the PMN isolation media (IM) was at room temperature (RI). Next, the blood was centrifuged at room temperature for 30′, 550×g at 1700 RPMs. The low lower white band was transferred into a 15 ml conical centrifuge tube (CCFT). Next, 2V HESS with 10% fetal bovine serum […] was added and centrifuged at room temperature for 10′, 400×g at 1400 RPMs. The pellet was then resuspended in 5 ml 1-1ESS with PBS. The cell suspension was added to 50 ml CCFT containing 20 ml of ice cold 0.88% NH4 Cland inverted two to three times. The resulting product was centrifuged for 10′, 800×g at 2000 RPMs, then aspirated and resuspended in ml HBSS with FBS. The prep was examined by counting and cytospin and preferably for whole blood, the cell number should be between 10^9-10^11 cells and for PMNs, cell number should be between 2-4×10^7 cells. See generally, Wang et al., J. Immunol., “Neutrophil-induced changes in the biomechanical properties of endothelial cells: roles of ICAM-1 and reactive oxygen species,” 6487-94 (2000).
MPO Colorimetric Enzyme Assay—Samples were assayed for MPO activity in 96 well round bottom microtiter plates using a sandwich ELISA kit (R & D Systems, Minneapolis, Minn.). Briefly, 20 microliters of sample is mixed with 180 microliters of substrate mixture containing 33 mM potassium phosphate, pH 6.0, […], 0.11 mM hydrogen peroxide, and 0.36 mM O-Diannisidine Dihydrochloride in an individual microtiter well. The final concentrations in the assay mixture are: 30 mM potassium phosphate, pH 6.0, 0.05% Triton X-100, 0.1 mM hydrogen peroxide, and 0.32 mM O-Diannisidine Dihydrochloride. […] Samples were assayed in duplicate.

[2] = test system: NK-92 cells; experiment: Inhibition of release of granzyme from NK-92 cells; type: cell-based, human; conditions: for % Inhibition Granzyme: at 50 μM of test peptide
Procedure: Measurement of NK cell granzyme secretion: Granzyme secreted from NK-92 cells was assayed by measuring hydrolysis of Nα-benzyloxycarbonyl-L-lysine thiobenzyl ester (BLT, EMD Bioscience, Inc.) essentially as described previously (Takayama H. Trenn G, Sitkovsky M V. A novel cytotoxic T lymphocyte activation assay. J. Immunol. Methods 104:183-190, 1987). An aliquot of 50 μl of supernatant was transferred to a 96-well plate, and 150 μl of 0.2 mM solution of BLT and 0.22 mM DTNB (Sigma-Aldrich Co.) in phosphate-buffered saline (PBS, pH 7.2) was added to the supernatant. Absorbance at 410 nm was measured after incubation for 30 min at room temperature. Results were expressed as percentage of total cellular enzyme content, using the amount obtained in the same number of triton X-100-lysed cells.
Because standard granzyme from NK-92 cells was not available to use for quantification, we measured both released and intracellular (from lysed cells) levels of granzyme, and expressed the released granzyme as a percentage of total (intracellular and released) for each. To measure intracellular granzyme from NK-92 cells, appropriate aliquots of 0.1% triton X-100-lysed cells were taken for quantification of the enzyme as described above. All data are expressed as percentage of control to minimize variability between cultures.

[3] = test system: NHBE cells; experiment: Cytotoxicity / metabolic activity of NHBE cells (LDH release, deoxyglucose uptake); type: cell-based, human; conditions: peptide 1-100 μM
Procedure: In Results-I-2B-1 and Results-I-2B-2, the MANS peptide blocked mucin hypersecretion induced by PMA+8-Br-cGMP or UTP in a concentration-dependent manner. NHBE cells were preincubated with the indicated peptide for 15 min and then exposed to PMA (100 nM)+8-Br-cGMP (1 μM) for 15 min or UTP (100 μM) for 2 h. Mucin secretion was measured by ELISA.
Cytotoxicity Assay—All reagents used in treating NHBE cells were examined for cytotoxicity by measuring the total release of lactate dehydrogenase from the cells. The assay was carried out using the Promega Cytotox 96 Kit according to the manufacturer's instructions. All experiments were performed with reagents at non-cytotoxic concentrations.

[4] = test system: human bronchial epithelial cells; experiment: Basal (constitutive) mucin secretion by human bronchial epithelial cells; type: cell-based; conditions: peptide 100 μM, one hour incubation, no PMA or 8-Br-cGMP
Procedure: Mucus secreted from the airway epithelial cells in vitro after stimulation by activators was assessed using an ELISA (antibody capture method) (E. Harlow, D. Lane. “Antibodies: A Laboratory Manual.” New York: Cold Spring Harbor Laboratory Press, 1988), wherein the collected mucus is bound directly to the ELISA plate. Mucus was detected using an antibody raised against monkey airway mucus (Lin et al. Am J Respir Cell Mol Biol 1:41, 1989).
The MANS peptide (100 μM) was also found to decrease constitutive (basal) mucus secretion by one hour incubation. Cells were treated as described above except that no PMA or 8-Br-cGMP was used. […] Results, designated as Results-M-1B, are presented as follows and show the inhibition of basal mucin secretion by human bronchial epithelial cells exposed to the MANS peptide (SEQ ID NO: 1) or a negative control peptide consisting of the same amino acids as the MANS peptide, but in random order (RNS peptide; random N-terminal sequence (SEQ ID NO: 26):
The effect of MA-PSD peptide (1, 10 and 100 μM) on basal mucin secretion was also measured. Cells as described above were incubated for one hour with the MA-PSD peptide (no PMA or 8-Br-cGMP).

[5] = peptide 1 μM + 100 nM PMA+10 μM 8-Br-cGMP, unstimulated control 0.10
[6] = peptide 10 μM + 100 nM PMA+10 μM 8-Br-cGMP

SMILES | Absorbance at 450 nm (MPO secretion) [1, 5] | Absorbance at 450 nm (MPO secretion) [1, 6] | Reduction in granzyme secretion relative to the PMA control reference ([2]; 100 μM peptide, 100 nM PMA 2 hour) | % Inhibition Granzyme [2] | Lactate dehydrogenase release [3] | [3H]deoxyglucose uptake [3] | Basal mucin secretion level relative to control [4] | Granzyme secretion relative to control as 100% ([2]; 100 nM PMA, 2 hour incubation) | Effect on PMA-enhanced granzyme secretion ([2]; any of the time points or concentrations tested)
CCCCCCCCCCCCCC(=O)NCC(=O)N[C@@H](C)C(=O)N[C@@H](CCC(N)=O)C(=O)N[C@@H](Cc1ccccc1)C(=O)N[C@@H](CO)C(=O)N[C@@H](CCCCN)C(=O)N[C@H](C(=O)N[C@@H](C)C(=O)N[C@@H](C)C(=O)N[C@@H](CCCCN)C(=O)NCC(=O)N[C@@H](CCC(=O)O)C(=O)N[C@@H](C)C(=O)N[C@@H](C)C(=O)N[C@@H](C)C(=O)N[C@@H](CCC(=O)O)C(=O)N[C@@H](CCCNC(=N)N)C(=O)N1CCC[C@H]1C(=O)NCC(=O)N[C@@H](CCC(=O)O)C(=O)N[C@@H](C)C(=O)N[C@@H](C)C(=O)N[C@H](C(=O)N[C@@H](C)C(=O)O)C(C)C)[C@@H](C)O [MANS peptide] (Myristoyl-GAQFSKTAAKGEAAAERPGEAAVA-OH; C-terminus assumed) | 0.25 | 0.09 | about 60% | 76.0% | neither the MANS nor the RNS peptide affected | neither the MANS nor the RNS peptide affected | 28% | – | –
CCCCCCCCCCCCCC(=O)O[C@@H]1[C@@H](C)[C@@]2(O)[C@@H](C=C(CO)C[C@]3(O)C(=O)C(C)=C[C@@H]23)[C@@H]2C(C)(C)[C@]12OC(C)=O [PMA, phorbol 12-myristate 13-acetate] | – | – | – | – | – | – | – | about 220% | –
CCCCCCCCCCCCCC(=O)NCC(=O)N[C@H](C(=O)N[C@@H](C)C(=O)N1CCC[C@H]1C(=O)N[C@@H](C)C(=O)N[C@@H](C)C(=O)N[C@@H](CCC(=O)O)C(=O)NCC(=O)N[C@@H](C)C(=O)NCC(=O)N[C@@H](C)C(=O)N[C@@H](CCC(=O)O)C(=O)N[C@H](C(=O)N[C@@H](CCCCN)C(=O)N[C@@H](CCCNC(=N)N)C(=O)N[C@@H](C)C(=O)N[C@@H](CO)C(=O)N[C@@H](C)C(=O)N[C@@H](CCC(=O)O)C(=O)N[C@@H](C)C(=O)N[C@@H](CCCCN)C(=O)N[C@@H](CCC(N)=O)C(=O)N[C@@H](C)C(=O)N[C@@H](Cc1ccccc1)C(=O)O)C(C)C)[C@@H](C)O [RNS peptide, reference compound] (Myristoyl-GTAPAAEGAGAEVKRASAEAKQAF-OH; C-terminus assumed) | 0.32 | 0.30 | – | 29.5% | neither the MANS nor the RNS peptide affected | neither the MANS nor the RNS peptide affected | 90% | – | did not affect
